# Source: ChEMBL document CHEMBL1681719, “Synthesis and evaluation of 1,5-diaryl-substituted tetrazoles as novel selective cyclooxygenase-2 (COX-2) inhibitors” (Bioorg Med Chem Lett, 2011)
# Key:
# [1] = Selectivity index ratio of IC50 for ovine COX-1 to IC50 for human recombinant COX-2
# [2] = molecular target: T1, Prostaglandin G/H synthase 1 (Ovis aries, UniProt P05979); test: Inhibition of ovine COX-1 by fluorescence assay
# T1 sequence (P05979 whole entry): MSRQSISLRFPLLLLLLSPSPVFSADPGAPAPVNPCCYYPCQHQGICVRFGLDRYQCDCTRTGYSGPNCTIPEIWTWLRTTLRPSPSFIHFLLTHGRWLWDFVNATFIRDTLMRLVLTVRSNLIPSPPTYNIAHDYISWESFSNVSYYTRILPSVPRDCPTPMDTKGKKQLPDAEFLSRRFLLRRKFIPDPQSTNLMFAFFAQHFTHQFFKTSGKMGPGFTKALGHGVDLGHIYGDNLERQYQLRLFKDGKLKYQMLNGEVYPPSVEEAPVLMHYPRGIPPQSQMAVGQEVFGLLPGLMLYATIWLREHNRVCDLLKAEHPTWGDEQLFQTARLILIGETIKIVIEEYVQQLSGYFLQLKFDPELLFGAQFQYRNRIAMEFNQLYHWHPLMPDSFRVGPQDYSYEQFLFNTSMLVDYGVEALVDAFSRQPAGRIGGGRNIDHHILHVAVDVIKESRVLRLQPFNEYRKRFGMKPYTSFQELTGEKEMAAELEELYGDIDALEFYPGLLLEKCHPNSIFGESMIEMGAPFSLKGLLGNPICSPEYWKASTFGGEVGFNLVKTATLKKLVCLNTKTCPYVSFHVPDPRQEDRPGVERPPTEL
# [3] = molecular target: T2, Prostaglandin G/H synthase 2 (Homo sapiens, UniProt P35354); test: Inhibition of human recombinant COX-2 by fluorescence assay
# T2 sequence (P35354 whole entry): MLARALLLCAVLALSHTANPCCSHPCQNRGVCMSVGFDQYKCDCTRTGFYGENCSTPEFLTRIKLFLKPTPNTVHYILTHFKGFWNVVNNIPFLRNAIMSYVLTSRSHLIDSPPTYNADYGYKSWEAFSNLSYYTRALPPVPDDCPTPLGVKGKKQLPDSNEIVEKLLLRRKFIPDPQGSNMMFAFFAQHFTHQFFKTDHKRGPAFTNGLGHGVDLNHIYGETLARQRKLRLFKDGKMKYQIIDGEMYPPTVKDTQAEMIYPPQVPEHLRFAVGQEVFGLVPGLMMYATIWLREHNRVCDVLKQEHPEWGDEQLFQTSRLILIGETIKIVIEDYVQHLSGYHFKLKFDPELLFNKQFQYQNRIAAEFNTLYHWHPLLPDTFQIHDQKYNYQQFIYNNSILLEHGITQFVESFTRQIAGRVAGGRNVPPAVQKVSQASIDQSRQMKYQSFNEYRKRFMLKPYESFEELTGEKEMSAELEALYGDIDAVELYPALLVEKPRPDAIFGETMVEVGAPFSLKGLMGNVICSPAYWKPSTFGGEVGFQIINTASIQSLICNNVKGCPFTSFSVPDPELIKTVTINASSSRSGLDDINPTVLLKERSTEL
SMILES,Ratio IC50 [1],IC50 [2] [µM],IC50 [3] [µM]
Cc1ccc(-n2nnnc2-c2ccc(S(C)(=O)=O)cc2)cc1,180,8100,45
CS(=O)(=O)c1ccc(-c2nnnn2-c2ccc(Cl)cc2)cc1,4.5,500,110
COc1ccc(-n2nnnc2-c2ccc(S(C)(=O)=O)cc2)cc1,210,420,2
CS(=O)(=O)c1ccc(-c2nnnn2-c2ccc(F)cc2)cc1,237,640,2.7
CS(=O)(=O)c1ccc(-c2nnnn2-c2ccccc2)cc1,18.5,3700,200
